Tests used:
[1] = system: Puccinia recondita f. Sp. tritici; test: In vivo preventive test on Puccinia recondita f. Sp. tritici (wheat brown rust); details: topical, 240 h, 1000 ppm of active ingredient, evaluated 10 days after inoculation, read-out: efficacy
[2] = system: Sphaerotheca fuliginea; test: In vivo protective test on Sphaerotheca fuliginea (cucumbers); details: Podosphaera fuliginea, 168 h, 100 ppm of active ingredient, evaluated 7 days after inoculation, read-out: efficacy
[3] = system: Erysiphe graminis f. sp. hordei; test: In vivo preventive test on Erysiphe gramini (powdery mildew on barley); details: Blumeria graminis, 168 h, 1000 ppm of active ingredient, evaluated 7 days after inoculation, read-out: efficacy
[4] = system: Podosphaera leucotricha; test: In vivo protective test on Podosphaera leucotricha (apples); details: topical, 240 h, 100 ppm of active ingredient, evaluated 10 days after inoculation, read-out: efficacy
[5] = physchem; details: reversed-phase HPLC column (C 18)
[6] = system: Alternaria solani; test: In vivo protective test on Alternaria solani (leaf spot of tomato); details: 168 h, 500 ppm of active ingredient, evaluated 7 days after inoculation, read-out: efficacy

Structure (SMILES) | chromatographic logP [5] | chromatographic logP ([5]; pH 2.3) | pest or weed control at 1000 ppm [1] [%] | pest or weed control at 100 ppm [2] [%] | pest or weed control at 1000 ppm [3] [%] | pest or weed control at 100 ppm [4] [%] | pest or weed control at 500 ppm [6] [%]
Cc1cc(Oc2nc(Cl)c(Cl)s2)c(C)cc1N [II-1, 4-[(4,5-dichloro-1,3-thiazol-2-yl)oxy]-2,5-dimethylaniline] |  | 3.4 |  |  |  |  | 
CCN(C)/C=N/c1cc(C)c(Oc2nnc(-c3ccccc3)s2)cc1C [Compound 3.3] | 1.93 |  |  |  |  |  | 
CCN(C)/C=N/c1ccc(Oc2nc(C(C)(C)C)ns2)cc1C [Compound 2.7] | 2.04 |  | ≥ 70 |  |  | ≥ 70 | ≥ 70
CCN(C)/C=N/c1cc(C)c(O)cc1C [IX-a, N-ethyl-N′-(4-hydroxy-2,5-dimethylphenyl)-N-methylimidoformamide] |  | 0.41 |  |  |  |  | 
CCN(C)/C=N/c1cc(C)c(Oc2nc(-c3ccccc3)cs2)cc1C [Compound 1.60] | 2.18 |  |  |  |  |  | 
Cc1cc(Oc2nnc(C(F)(F)F)s2)c(C)cc1/N=C/N(C)C(C)C [Compound 3.1] | 1.84 |  | ≥ 70 |  | ≥ 70 |  | 
Cc1cc(Oc2nc(C(C)C)c(Cl)s2)c(C)cc1/N=C/N(C)C(C)C [Compound 1.9] | 2.57 |  | ≥ 70 | ≥ 70 | ≥ 70 | ≥ 70 | ≥ 70
CSc1nnc(Oc2cc(C)c(/N=C/N(C)C(C)C)cc2C)s1 [Compound 3.18] | 1.82 |  |  |  |  |  | 
Cc1cc(Oc2nc(-c3ccccc3)cs2)c(C)cc1/N=C/N(C)C(C)C [Compound 1.61] | 2.25 |  |  |  |  |  | 
Cc1cc(Oc2nc(C(C)C)ns2)c(C)cc1/N=C/N(C)C(C)C [Compound 2.4] | 1.89 |  | ≥ 70 |  | ≥ 70 |  | 
CCN(C)C=Nc1cc(C)c(Oc2nc(C=NOC(C)(C)C)c(Cl)s2)cc1C [Compound 1.44, N′-[4-({4-[(tert-butoxyimino)methyl]-5-chloro-1,3-thiazol-2-yl}oxy)-2,5-dimethylphenyl]-N-ethyl-N-methylimidoformamide] | 2.65 | 2.65 |  |  |  |  | 
CCN(C)/C=N/c1ccc(Oc2nc(Cl)c(Cl)s2)cc1C [Compound 1.39] | 1.99 |  |  |  |  |  | 
Cc1cc(Oc2nc(C(C)(C)C)c(Cl)s2)c(C)cc1/N=C/N(C)C(C)C [Compound 1.64] | 2.79 |  |  |  |  |  | ≥ 70
Cc1cc(Oc2nc(C)c(C)s2)ccc1/N=C/N(C)C(C)C [Compound 1.34] | 1.66 |  |  |  |  |  | 
Cc1cc(Oc2nc(Cl)c(Cl)s2)ccc1/N=C/N(C)C(C)C [Compound 1.28] | 2.09 |  | ≥ 70 |  | ≥ 70 |  | 
Cc1cc(Oc2nnc(C(C)C)s2)c(C)cc1/N=C/N(C)C(C)C [Compound 3.19] | 1.69 |  |  |  |  |  | 
Cc1cc(Oc2nc(Cl)ns2)c(C)cc1/N=C/N(C)C(C)C [Compound 2.6] | 1.67 |  |  |  |  |  | 
Cc1cc(Oc2nc(C(F)(F)F)c(Cl)s2)c(C)cc1/N=C/N(C)C(C)C [Compound 1.10] | 2.29 |  | ≥ 70 | ≥ 70 | ≥ 70 | ≥ 70 | 
Cc1cc(Oc2nnc(-c3ccccc3)s2)c(C)cc1/N=C/N(C)C(C)C [Compound 3.6] | 2 |  |  |  |  |  | 
CCN(C)/C=N/c1ccc(Oc2nc(C(C)C)ns2)cc1C [Compound 2.2] | 1.57 |  | ≥ 70 |  | ≥ 70 |  | 
Cc1cc(Oc2nc(C(C)C)ns2)ccc1/N=C/N(C)C(C)C [Compound 2.1] | 1.77 |  |  |  |  |  | 
Cc1cc(Oc2nc(Cl)cs2)c(C)cc1/N=C/N(C)C(C)C [Compound 1.14] | 1.7 |  |  |  |  |  | ≥ 70
CCCc1sc(Oc2cc(C)c(/N=C/N(C)C(C)C)cc2C)nc1C [Compound 1.35] | 2.29 |  |  |  |  |  | 

Second part, led by results:

chromatographic logP [5] | chromatographic logP ([5]; pH 2.3) | Structure (SMILES) | pest or weed control at 1000 ppm [1] [%] | pest or weed control at 100 ppm [2] [%] | pest or weed control at 1000 ppm [3] [%] | pest or weed control at 100 ppm [4] [%] | pest or weed control at 500 ppm [6] [%]
1.6 |  | CCN(C)/C=N/c1cc(C)c(Oc2nc(Cl)cs2)cc1C [Compound 1.18] | ≥ 70 | ≥ 70 | ≥ 70 | ≥ 70 | 
2.78 |  | CCN(C)/C=N/c1cc(C)c(Oc2nc(C(C)(C)C)c(Br)s2)cc1C [Compound 1.71] | ≥ 70 |  |  | ≥ 70 | ≥ 70
1.46 | 1.51 | CCN(C)/C=N/c1cc(C)c(Oc2nc(C=O)c(Cl)s2)cc1C [Compound 1.42, N′-{4-[(5-chloro-4-formyl-1,3-thiazol-2-yl)oxy]-2,5-dimethylphenyl}-N-ethyl-N-methylimidoformamide] |  |  |  |  | 
2.22 |  | CCCc1sc(Oc2cc(C)c(/N=C/N(C)CC)cc2C)nc1C [Compound 1.36] |  |  |  |  | 
2.26 |  | CCN(C)/C=N/c1cc(C)c(Oc2nc(C(C)(C)C)cs2)cc1C [Compound 1.75] | ≥ 70 |  |  | ≥ 70 | 
1.69 |  | Cc1cc(Oc2nc(Cl)c(C)s2)c(C)cc1/N=C/N(C)C [Compound 1.31] |  |  |  |  | 
2.12 | 2.04 | CCN(C)/C=N/c1cc(C)c(Oc2nc(Cl)c(Cl)s2)cc1C [Compound 1.1, N′-{4-[(4,5-dichloro-1,3-thiazol-2-yl)oxy]-2,5-dimethylphenyl}-N-ethyl-N-methylimidoformamide] | ≥ 70 | ≥ 70 | ≥ 70 | ≥ 70 | ≥ 70
1.56 |  | CCN(C)/C=N/c1cc(C)c(Oc2nc(Cl)ns2)cc1C [Compound 2.5] |  |  |  |  | 
2.52 |  | CCN(C)/C=N/c1cc(C)c(Oc2nc(C(C)C)c(Cl)s2)cc1C [Compound 1.20] | ≥ 70 |  | ≥ 70 |  | ≥ 70
1.69 |  | CCN(C)/C=N/c1cc(C)c(Oc2nnc(SC)s2)cc1C [Compound 3.21] |  |  |  |  | ≥ 70
2.15 |  | CCN(C)/C=N/c1cc(C)c(Oc2nc(C(F)(F)F)c(Cl)s2)cc1C [Compound 1.5] | ≥ 70 | ≥ 70 | ≥ 70 | ≥ 70 | ≥ 70
2.87 |  | CCN(C)/C=N/c1cc(C)c(Oc2nc(Cl)c(C(C)(C)C)s2)cc1C [Compound 1.73] | ≥ 70 |  |  |  | 
1.98 |  | Cc1cc(Oc2nc(C)c(C)s2)c(C)cc1/N=C/N(C)C(C)C [Compound 1.37] |  |  |  |  | 
1.98 |  | CCN(C)/C=N/c1cc(C)c(Oc2nc(C)c(Cl)s2)cc1C [Compound 1.12] | ≥ 70 | ≥ 70 | ≥ 70 | ≥ 70 | ≥ 70
1.74 |  | CCN(C)/C=N/c1cc(C)c(Oc2nc(C#N)c(Cl)s2)cc1C [Compound 1.72] | ≥ 70 |  |  | ≥ 70 | 
1.61 |  | CCN(C)/C=N/c1cc(C)c(Oc2nnc(C(C)C)s2)cc1C [Compound 3.22] |  |  |  |  | 
1.87 |  | CCN(C)/C=N/c1cc(C)c(Oc2nc(C)c(C)s2)cc1C [Compound 1.38] |  |  |  |  | 
1.8 |  | CCN(C)/C=N/c1cc(C)c(Oc2nc(Cl)c(C)s2)cc1C [Compound 1.17] | ≥ 70 |  | ≥ 70 | ≥ 70 | ≥ 70
1.74 |  | CCN(C)/C=N/c1cc(C)c(Oc2nc(C(C)C)ns2)cc1C [Compound 2.3] | ≥ 70 | ≥ 70 | ≥ 70 | ≥ 70 | ≥ 70
2 |  | CCN(C)/C=N/c1cc(C)c(Oc2nc(Cl)c(Br)s2)cc1C [Compound 1.6] | ≥ 70 | ≥ 70 | ≥ 70 | ≥ 70 | 
1.68 |  | CCN(C)/C=N/c1cc(C)c(Oc2nc(Cl)c(C=O)s2)cc1C [Compound 1.62] |  |  |  |  | 
1.78 |  | CCN(C)/C=N/c1cc(C)c(Oc2nnc(C(F)(F)F)s2)cc1C [Compound 3.2] | ≥ 70 |  | ≥ 70 |  | ≥ 70
1.5 |  | CCN(C)/C=N/c1cc(C)c(Oc2nc(C)c(C(C)=O)s2)cc1C [Compound 1.27] |  |  |  |  | ≥ 70
2.18 |  | Cc1cc(Oc2nc(Cl)c(Cl)s2)c(C)cc1/N=C/N(C)C(C)C [Compound 1.3] | ≥ 70 | ≥ 70 | ≥ 70 | ≥ 70 | ≥ 70
2.14 |  | Cc1cc(Oc2nc(C)c(Cl)s2)c(C)cc1/N=C/N(C)C(C)C [Compound 1.13] | ≥ 70 |  | ≥ 70 |  | ≥ 70
2.18 |  | CCN(C)/C=N/c1cc(C)c(Oc2ncc(C(C)(C)C)s2)cc1C [Compound 1.74] | ≥ 70 |  |  | ≥ 70 | ≥ 70
1.65 |  | CCN(C)/C=N/c1ccc(Oc2nc(C)c(C)s2)cc1C [Compound 1.33] |  |  |  |  | 

Reference: patent publication US8933107B2, “Pesticide thiazolyloxy substituted phenylamidine derivatives” (Bayer Cropscience AG, priority 2005, dated 2015)
